Read-outs that look alike come from different tables or passages of the source.
Columns and labels:
[1] = test system: RPE-Neo or RPE-MYC or RPE-MYC expressing an EGFP-Histone 2B fusion protein; assay: Phenotypic screening assay: arrest in mitosis, change in DNA content (polyploidy), cell death; format: cell-based; conditions: 20 nM to 20 μM, 24, 48 or 72 hours
Method in brief: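 RPE-Neo, RPE-MYC or RPE-MYC EGFP-H2B cells plated 18-24 h before treatment with compounds at 20 nM to 20 μM. Mitotic arrest or DNA-content change scored by automated imaging at 24, 48 or 72 h; proliferation by MTT. Values binned into A–D ranges.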

RPE-Neo or RPE-MYC cells = assay: MTT assay of cellular proliferation (proliferative arrest); format: cell-based; conditions: read-out: Min. Effective conc. for Proliferative arrest (>50%)
[2] = read-out: Min. Effective conc. for Along with Cell Death
[3] = ≥5%, read-out: Min. Effective conc. for Mitotic Arrest (≥5%)
[4] = ≥5%, read-out: Min. Effective conc. for Polyploidy (≥5%)

Measured: minimal effective concentration

COCCOCCn1cc(-c2ccc3c(c2)N(Cc2ccc(OC)cc2)C(=O)CC(c2ncc(C)o2)=C3)cn1 [Compound 78, 1-(4-methoxybenzyl)-8-(1-(2-(2-methoxyethoxy)ethyl)-1H-pyrazol-4-yl)-4-(5-methyloxazol-2-yl)-1,3-dihydro-2H-benzo[b]azepin-2-one]
0.001 to 1 µM: [1]; [2] | [1]; [3] | [1]; [4] | RPE-Neo or RPE-MYC cells

COCCCCn1cc(-c2ccc3c(c2)N(Cc2ccc(OC)cc2)C(=O)CC(c2ncc(C)o2)=C3)cn1 [Compound 79, 1-(4-methoxybenzyl)-8-(1-(4-methoxybutyl)-1H-pyrazol-4-yl)-4-(5-methyloxazol-2-yl)-1,3-dihydro-2H-benzo[b]azepin-2-one]
0.001 to 1 µM: [1]; [2] | [1]; [3] | [1]; [4] | RPE-Neo or RPE-MYC cells

CCOCCn1cc(-c2ccc3c(c2)N(Cc2ccc(OC)cc2)C(=O)CC(c2ncc(C)o2)=C3)cn1 [Compound 80, 8-(1-(2-ethoxyethyl)-1H-pyrazol-4-yl)-1-(4-methoxybenzyl)-4-(5-methyloxazol-2-yl)-1,3-dihydro-2H-benzo[b]azepin-2-one]
0.001 to 1 µM: [1]; [2] | [1]; [3] | [1]; [4] | RPE-Neo or RPE-MYC cells

COc1ccc(CN2C(=O)CC(c3ncc(C)o3)=Cc3ccc(-c4cnn(C(C)=O)c4)cc32)cc1 [Compound 81, 8-(1-Acetyl-1H-pyrazol-4-yl)-1-(4-methoxybenzyl)-4-(5-methyloxazol-2-yl)-1,3-dihydro-2H-benzo[b]azepin-2-one]
0.001 to 1 µM: [1]; [2] | [1]; [3] | [1]; [4] | RPE-Neo or RPE-MYC cells

COc1ccc(CN2C(=O)CC(c3ncc(C)o3)=Cc3ccc(-c4cnn(C(C)C(C)O)c4)cc32)cc1 (stereo not drawn) [Compound 83, 8-(1-(3-Hydroxybutan-2-yl)-1H-pyrazol-4-yl)-1-(4-methoxybenzyl)-4-(5-methyloxazol-2-yl)-1,3-dihydro-2H-benzo[b]azepin-2-one]
0.001 to 1 µM: [1]; [2] | [1]; [3] | [1]; [4] | RPE-Neo or RPE-MYC cells

CCS(=O)(=O)N1CC(CC#N)(n2cc(-c3ccc4c(c3)N(Cc3ccc(OC)cc3)C(=O)CC(c3ncc(C)o3)=C4)cn2)C1 [Compound 84, 2-(1-(Ethylsulfonyl)-3-(4-(1-(4-methoxybenzyl)-4-(5-methyloxazol-2-yl)-2-oxo-2,3-dihydro-1H-benzo[b]azepin-8-yl)-1H-pyrazol-1-yl)azetidin-3-yl)acetonitrile]
0.001 to 1 µM: [1]; [2] | [1]; [3] | [1]; [4] | RPE-Neo or RPE-MYC cells

COc1ccc(CN2C(=O)CC(c3ncc(C)o3)=Cc3ccc(-c4cnn(C5(CC#N)CNC5)c4)cc32)cc1 [Compound 85, 2-(3-(4-(1-(4-Methoxybenzyl)-4-(5-methyloxazol-2-yl)-2-oxo-2,3-dihydro-1H-benzo[b]azepin-8-yl)-1H-pyrazol-1-yl)azetidin-3-yl)acetonitrile]
0.001 to 1 µM: [1]; [2] | [1]; [3] | [1]; [4] | RPE-Neo or RPE-MYC cells

COc1ccc(CN2C(=O)CC(c3ncc(C)o3)=Cc3ccc(-c4cnn(C(C)(C)C#N)c4)cc32)cc1 [Compound 86, 2-(4-(1-(4-Methoxybenzyl)-4-(5-methyloxazol-2-yl)-2-oxo-2,3-dihydro-1H-benzo[b]azepin-8-yl)-1H-pyrazol-1-yl)-2-methylpropanenitrile]
0.001 to 1 µM: [1]; [2] | [1]; [3] | [1]; [4] | RPE-Neo or RPE-MYC cells

COc1ccc(CN2C(=O)CC(c3ncc(C)o3)=Cc3ccc(-c4cnn(C5(CC#N)CN(S(C)(=O)=O)C5)c4)cc32)cc1 [Compound 87, 2-(3-(4-(1-(4-Methoxybenzyl)-4-(5-methyloxazol-2-yl)-2-oxo-2,3-dihydro-1H-benzo[b]azepin-8-yl)-1H-pyrazol-1-yl)-1-(methylsulfonyl)azetidin-3-yl)acetonitrile]
0.001 to 1 µM: [1]; [2] | [1]; [3] | [1]; [4] | RPE-Neo or RPE-MYC cells

COc1ccc(CN2C(=O)CC(c3ncc(C)o3)=Cc3ccc(-c4cnn(C5(CC#N)COC5)c4)cc32)cc1 [Compound 88, 2-(3-(4-(1-(4-Methoxybenzyl)-4-(5-methyloxazol-2-yl)-2-oxo-2,3-dihydro-1H-benzo[b]azepin-8-yl)-1H-pyrazol-1-yl)oxetan-3-yl)acetonitrile]
0.001 to 1 µM: [1]; [2] | [1]; [3] | [1]; [4] | RPE-Neo or RPE-MYC cells

COc1ccc(CN2C(=O)CC(c3ncc(C)o3)=Cc3ccc(-c4cnn(C5(CC#N)CN(S(=O)(=O)C6CC6)C5)c4)cc32)cc1 [Compound 89, 2-(1-(Cyclopropylsulfonyl)-3-(4-(1-(4-methoxybenzyl)-4-(5-methyloxazol-2-yl)-2-oxo-2,3-dihydro-1H-benzo[b]azepin-8-yl)-1H-pyrazol-1-yl)azetidin-3-yl)acetonitrile]
0.001 to 1 µM: [1]; [2] | [1]; [3] | [1]; [4] | RPE-Neo or RPE-MYC cells

COc1ccc(CN2C(=O)CC(c3ncc(C)o3)=Cc3ccc(-c4cnn(C5(CC#N)CN(C(=O)C6CC6)C5)c4)cc32)cc1 [Compound 90, 2-(1-(Cyclopropanecarbonyl)-3-(4-(1-(4-methoxybenzyl)-4-(5-methyloxazol-2-yl)-2-oxo-2,3-dihydro-1H-benzo[b]azepin-8-yl)-1H-pyrazol-1-yl)azetidin-3-yl)acetonitrile]
0.001 to 1 µM: [1]; [2] | [1]; [3] | [1]; [4] | RPE-Neo or RPE-MYC cells

COc1ccc(CN2C(=O)CC(c3ncc(C)o3)=Cc3ccc(-c4cnn(C5(CC#N)CN(S(=O)(=O)N(C)C)C5)c4)cc32)cc1 [Compound 91, 3-(Cyanomethyl)-3-(4-(1-(4-methoxybenzyl)-4-(5-methyloxazol-2-yl)-2-oxo-2,3-dihydro-1H-benzo[b]azepin-8-yl)-1H-pyrazol-1-yl)-N,N-dimethylazetidine-1-sulfonamide]
0.001 to 1 µM: [1]; [2] | [1]; [3] | [1]; [4] | RPE-Neo or RPE-MYC cells

COc1ccc(CN2C(=O)CC(c3ncc(C)o3)=Cc3ccc(-c4cnn(C5(C(N)=O)CC5)c4)cc32)cc1 [Compound 92, 1-(4-(1-(4-Methoxybenzyl)-4-(5-methyloxazol-2-yl)-2-oxo-2,3-dihydro-1H-benzo[b]azepin-8-yl)-1H-pyrazol-1-yl)cyclopropane-1-carboxamide]
0.001 to 1 µM: [1]; [2] | [1]; [3] | [1]; [4] | RPE-Neo or RPE-MYC cells

COc1ccc(CN2C(=O)CC(c3nnc(C)o3)=Cc3ccc(-c4cnn(CC(C)(C)O)c4)cc32)cc1 [Compound 93, 8-(1-(2-Hydroxy-2-methylpropyl)-1H-pyrazol-4-yl)-1-(4-methoxybenzyl)-4-(5-methyl-1,3,4-oxadiazol-2-yl)-1,3-dihydro-2H-benzo[b]azepin-2-one]
0.001 to 1 µM: [1]; [2] | [1]; [3] | [1]; [4] | RPE-Neo or RPE-MYC cells

COc1ccc(CN2C(=O)CC(c3nc(C4CC4)no3)=Cc3ccc(-c4cnn(CC(C)(C)O)c4)cc32)cc1 [Compound 95, 4-(3-cyclopropyl-1,2,4-oxadiazol-5-yl)-8-(1-(2-hydroxy-2-methylpropyl)-1H-pyrazol-4-yl)-1-(4-methoxybenzyl)-1,3-dihydro-2H-benzo[b]azepin-2-one]
0.001 to 1 µM: [1]; [2] | [1]; [3] | [1]; [4] | RPE-Neo or RPE-MYC cells

COc1ccc(CN2C(=O)CC(c3ccon3)=Cc3ccc(-c4cnn(CC(C)(C)O)c4)cc32)cc1 [Compound 97, 8-(1-(2-Hydroxy-2-methylpropyl)-1H-pyrazol-4-yl)-4-(isoxazol-3-yl)-1-(4-methoxybenzyl)-1,3-dihydro-2H-benzo[b]azepin-2-one]
0.001 to 1 µM: [1]; [2] | [1]; [3] | [1]; [4] | RPE-Neo or RPE-MYC cells

COc1ccc(CN2C(=O)CC(c3nnco3)=Cc3ccc(-c4cnn(CC(C)(C)O)c4)cc32)cc1 [Compound 98, 8-(1-(2-Hydroxy-2-methylpropyl)-1H-pyrazol-4-yl)-1-(4-methoxybenzyl)-4-(1,3,4-oxadiazol-2-yl)-1,3-dihydro-2H-benzo[b]azepin-2-one]
0.001 to 1 µM: [1]; [2] | [1]; [3] | [1]; [4] | RPE-Neo or RPE-MYC cells

Reference: US20260317340A1, “COMPOUNDS, COMPOSITIONS, AND METHODS OF TREATING DISORDERS” (Chengdu Anticancer Bioscience, Ltd., priority 2023, published 2026)
